Literature values in patent US20160338951A1 (Gavis Pharmaceuticals, priority 2015, published 2016).

Details: olopatadine by itself, water pH about 7.0, room temperature

soluble in water up to a concentration: about 0.18 w/v %
Structure (SMILES): CN(C)CC/C=C1/c2ccccc2COc2ccc(CC(=O)O)cc21 [olopatadine, 11-[(Z)-3(Dimethylamino)propylidene]-6-11dihydrodibenz [b,e] oxepin-2-acetic acid]
